# Reference: patent US20120270929A1, “MODULATION OF TTC39 EXPRESSION TO INCREASE HDL” (ISIS Pharmaceuticals, Inc., priority 2009, published 2012)
# Oligonucleotides are written 5' to 3', each unit as a sugar letter and its base; * is a phosphorothioate linkage, no mark a phosphodiester; rarer units and linkages stand in square brackets, end groups in braces. Plain capitals give the bases only. e = 2'-O-(2-methoxyethyl) (MOE); [5mC] = 5-methylcytosine; d = 2'-deoxy (DNA)
# Assays:
# Assay type in all cases: in vivo, mouse
# [1] = tested on: Farnesyl diphosphate synthetase (Fdps) mRNA; assay: PCR microarray analysis of liver, LDLr-/- mice: Fdps; settings: 6 weeks
# Description: (§1) Four groups of five male mice each were injected with a total of 1.5, 5, 15, or 50 mg/kg/week of ISIS 447118 for 6 weeks. A group of five mice was injected with a total of 50 mg/kg/week of control oligonucleotide ISIS 141923 ([…], designated herein as SEQ ID NO: 112, which has no known murine target) for 6 weeks. A control group of five mice was injected with phosphate buffered saline (PBS) twice a week for 6 weeks. Plasma samples were obtained before the start of treatment, at week 3 and at week 6. At the end of the treatment period, the mice were euthanized. Plasma and tissue samples were obtained for further analysis.
# (§2) Liver samples from the mice groups were analyzed using a commercial kit for PCR microarray analysis (SA Biosciences Corp., MD), according to the manufacturer's instructions. Genes involved in lipoprotein and cholesterol metabolism were compared with the PBS control.
# [2] = tested on: Mevalonate (diphospho) decarboxylase (Mvd) mRNA; assay: PCR microarray analysis of liver, LDLr-/- mice: Mvd; settings: 6 weeks
# Description: as §1, §2
# [3] = Plasma cholesterol and triglycerides in LDLr-/- mice
# Description: The LDLr knockout mice model is a model for familial hypercholesterolemia developed by Ishibashi et al (J Clin Invest 1993; 92: 883-893). On a normal chow diet, the mice have an average total cholesterol of 250 mg/dL due to increases in LDL and VLDL cholesterol. This model is therefore highly susceptible to atherosclerosis (Ishibashi et al Proc Natl Acad Sci USA 1994; 91: 4431-4435).
# as §1
# To investigate the effect of inhibition of TTC39B on triglycerides and cholesterol levels in the plasma, samples were collected on weeks 0, 3, and 6, and total plasma cholesterol, LDL cholesterol, HDL cholesterol, and triglycerides were analyzed on an Olympus AU400e Analyzer.
# [4] = tested on: Sterol O-acyltransferase 2 (Soat2) mRNA; assay: PCR microarray analysis of liver, LDLr-/- mice: Soat2; settings: 6 weeks
# Description: as §1, §2
# Stabilin 1 (Stab1) mRNA = assay: PCR microarray analysis of liver, LDLr-/- mice: Stab1; settings: 6 weeks
# Description: as §1, §2
# [5] = tested on: Apolipoprotein A-IV (ApoA4) mRNA; assay: PCR microarray analysis of liver, LDLr-/- mice: ApoA4; settings: 6 weeks
# Description: as §1, §2
# [6] = tested on: Low density lipoprotein receptor (Ldlr) mRNA; assay: PCR microarray analysis of liver, LDLr-/- mice: Ldlr; settings: 6 weeks
# Description: as §1, §2
# [7] = tested on: Proprotein convertase subtilisin/kexin type 9 (Pcsk9) mRNA; assay: PCR microarray analysis of liver, LDLr-/- mice: Pcsk9; settings: 6 weeks
# Description: as §1, §2
# [8] = tested on: Oxysterol binding protein-like 5 (Osbpl5) mRNA; assay: PCR microarray analysis of liver, LDLr-/- mice: Osbpl5; settings: 6 weeks
# Description: as §1, §2
# [9] = 1.5 mg/kg/week, Week 0 (before treatment)
# [10] = 5 mg/kg/week, Week 0 (before treatment)
# [11] = 15 mg/kg/week, Week 0 (before treatment)
# [12] = 50 mg/kg/week, Week 0 (before treatment)
sequence,measurement,setting,value
GCAGCTCGATTCGGGCATGA (antisense eG*e[5mC]*eA*eG*e[5mC]*dT*d[5mC]*dG*dA*dT*dT*d[5mC]*dG*dG*dG*e[5mC]*eA*eT*eG*eA) [ISIS 447118],Fdps fold increase/decrease relative to PBS group,[1]; 1.5 mg/kg,1.03 fold
same,Fdps fold increase/decrease relative to PBS group,[1]; 5 mg/kg,0.84 fold
same,Fdps fold increase/decrease relative to PBS group,[1]; 15 mg/kg,0.8 fold
same,Fdps fold increase/decrease relative to PBS group,[1]; 50 mg/kg,0.66 fold
same,Mvd fold increase/decrease relative to PBS group,[2]; 1.5 mg/kg,0.81 fold
same,Mvd fold increase/decrease relative to PBS group,[2]; 5 mg/kg,0.7 fold
same,Mvd fold increase/decrease relative to PBS group,[2]; 15 mg/kg,0.56 fold
same,Mvd fold increase/decrease relative to PBS group,[2]; 50 mg/kg,0.67 fold
same,HDL cholesterol % increase on week 6 (% change over baseline),[3]; 1.5 mg/kg/week,36%
same,HDL cholesterol levels,[3]; [9],75 mg/dL
same,LDL cholesterol levels,[3]; [9],115 mg/dL
same,total cholesterol levels,[3]; [9],227 mg/dL
same,triglyceride levels,[3]; [9],126 mg/dL
same,HDL cholesterol levels,"[3]; 1.5 mg/kg/week, Week 3",71 mg/dL
same,LDL cholesterol levels,"[3]; 1.5 mg/kg/week, Week 3",116 mg/dL
same,total cholesterol levels,"[3]; 1.5 mg/kg/week, Week 3",217 mg/dL
same,triglyceride levels,"[3]; 1.5 mg/kg/week, Week 3",107 mg/dL
same,HDL cholesterol levels,"[3]; 1.5 mg/kg/week, Week 6",101 mg/dL
same,LDL cholesterol levels,"[3]; 1.5 mg/kg/week, Week 6",131 mg/dL
same,total cholesterol levels,"[3]; 1.5 mg/kg/week, Week 6",247 mg/dL
same,triglyceride levels,"[3]; 1.5 mg/kg/week, Week 6",142 mg/dL
same,HDL cholesterol % increase on week 6 (% change over baseline),[3]; 5 mg/kg/week,28%
same,HDL cholesterol levels,[3]; [10],88 mg/dL
same,LDL cholesterol levels,[3]; [10],112 mg/dL
same,total cholesterol levels,[3]; [10],234 mg/dL
same,triglyceride levels,[3]; [10],118 mg/dL
same,HDL cholesterol levels,"[3]; 5 mg/kg/week, Week 3",83 mg/dL
same,LDL cholesterol levels,"[3]; 5 mg/kg/week, Week 3",120 mg/dL
same,total cholesterol levels,"[3]; 5 mg/kg/week, Week 3",232 mg/dL
same,triglyceride levels,"[3]; 5 mg/kg/week, Week 3",122 mg/dL
same,HDL cholesterol levels,"[3]; 5 mg/kg/week, Week 6",112 mg/dL
same,LDL cholesterol levels,"[3]; 5 mg/kg/week, Week 6",130 mg/dL
same,total cholesterol levels,"[3]; 5 mg/kg/week, Week 6",261 mg/dL
same,triglyceride levels,"[3]; 5 mg/kg/week, Week 6",149 mg/dL
same,HDL cholesterol % increase on week 6 (% change over baseline),[3]; 15 mg/kg/week,45%
same,HDL cholesterol levels,[3]; [11],84 mg/dL
same,LDL cholesterol levels,[3]; [11],122 mg/dL
same,total cholesterol levels,[3]; [11],239 mg/dL
same,triglyceride levels,[3]; [11],120 mg/dL
same,HDL cholesterol levels,"[3]; 15 mg/kg/week, Week 3",82 mg/dL
same,LDL cholesterol levels,"[3]; 15 mg/kg/week, Week 3",133 mg/dL
same,total cholesterol levels,"[3]; 15 mg/kg/week, Week 3",249 mg/dL
same,triglyceride levels,"[3]; 15 mg/kg/week, Week 3",126 mg/dL
same,HDL cholesterol levels,"[3]; 15 mg/kg/week, Week 6",122 mg/dL
same,LDL cholesterol levels,"[3]; 15 mg/kg/week, Week 6",158 mg/dL
same,total cholesterol levels,"[3]; 15 mg/kg/week, Week 6",294 mg/dL
same,triglyceride levels,"[3]; 15 mg/kg/week, Week 6",131 mg/dL
same,HDL cholesterol % increase on week 6 (% change over baseline),[3]; 50 mg/kg/week,58%
same,HDL cholesterol levels,[3]; [12],78 mg/dL
same,LDL cholesterol levels,[3]; [12],99 mg/dL
same,total cholesterol levels,[3]; [12],207 mg/dL
same,triglyceride levels,[3]; [12],98 mg/dL
same,HDL cholesterol levels,"[3]; 50 mg/kg/week, Week 3",85 mg/dL
same,LDL cholesterol levels,"[3]; 50 mg/kg/week, Week 3",111 mg/dL
same,total cholesterol levels,"[3]; 50 mg/kg/week, Week 3",224 mg/dL
same,triglyceride levels,"[3]; 50 mg/kg/week, Week 3",96 mg/dL
same,HDL cholesterol levels,"[3]; 50 mg/kg/week, Week 6",124 mg/dL
same,LDL cholesterol levels,"[3]; 50 mg/kg/week, Week 6",146 mg/dL
same,total cholesterol levels,"[3]; 50 mg/kg/week, Week 6",282 mg/dL
same,triglyceride levels,"[3]; 50 mg/kg/week, Week 6",115 mg/dL
same,Soat2 fold increase/decrease relative to PBS group,[4]; 1.5 mg/kg,1.05 fold
same,Soat2 fold increase/decrease relative to PBS group,[4]; 5 mg/kg,0.88 fold
same,Soat2 fold increase/decrease relative to PBS group,[4]; 15 mg/kg,1.36 fold
same,Soat2 fold increase/decrease relative to PBS group,[4]; 50 mg/kg,1.79 fold
same,Stab1 fold increase/decrease relative to PBS group,Stabilin 1 (Stab1) mRNA; 1.5 mg/kg,1.15 fold
same,Stab1 fold increase/decrease relative to PBS group,Stabilin 1 (Stab1) mRNA; 5 mg/kg,1.19 fold
same,Stab1 fold increase/decrease relative to PBS group,Stabilin 1 (Stab1) mRNA; 15 mg/kg,1.35 fold
same,Stab1 fold increase/decrease relative to PBS group,Stabilin 1 (Stab1) mRNA; 50 mg/kg,1.53 fold
same,ApoA4 fold increase/decrease relative to PBS group,[5]; 1.5 mg/kg,1.26 fold
same,ApoA4 fold increase/decrease relative to PBS group,[5]; 5 mg/kg,1.38 fold
same,ApoA4 fold increase/decrease relative to PBS group,[5]; 15 mg/kg,1.76 fold
same,ApoA4 fold increase/decrease relative to PBS group,[5]; 50 mg/kg,2.7 fold
same,Ldlr fold increase/decrease relative to PBS group,[6]; 1.5 mg/kg,1.43 fold
same,Ldlr fold increase/decrease relative to PBS group,[6]; 5 mg/kg,1.28 fold
same,Ldlr fold increase/decrease relative to PBS group,[6]; 15 mg/kg,1.79 fold
same,Ldlr fold increase/decrease relative to PBS group,[6]; 50 mg/kg,2.87 fold
same,Pcsk9 fold increase/decrease relative to PBS group,[7]; 1.5 mg/kg,0.83 fold
same,Pcsk9 fold increase/decrease relative to PBS group,[7]; 5 mg/kg,0.66 fold
same,Pcsk9 fold increase/decrease relative to PBS group,[7]; 15 mg/kg,0.4 fold
same,Pcsk9 fold increase/decrease relative to PBS group,[7]; 50 mg/kg,0.23 fold
same,Osbpl5 fold increase/decrease relative to PBS group,[8]; 1.5 mg/kg,1.7 fold
same,Osbpl5 fold increase/decrease relative to PBS group,[8]; 5 mg/kg,2.34 fold
same,Osbpl5 fold increase/decrease relative to PBS group,[8]; 15 mg/kg,3.11 fold
same,Osbpl5 fold increase/decrease relative to PBS group,[8]; 50 mg/kg,2.11 fold
